Tests used:
Aphis gossypii = Aphis gossypii test; format: in vivo, cotton aphid (Aphis gossypii); conditions: for Kill (%) after 6 d +AS + RME per 1000 ppm: 1000 ppm each; for Kill (%) after 6 d: no additive, cotton plants, spray
Method: (§1) Solvent: 7 parts by weight of dimethylformamide
(§2) Emulsifier: 2 parts by weight of alkylaryl polyglycol ether
(§3) To produce a suitable preparation of active compound, 1 part by weight of active compound is mixed with the stated amounts of solvent and emulsifier, and the concentrate is diluted with emulsifier-containing water to the desired concentration. For application with ammonium salts or phosphonium salts and penetration promoters (rapeseed oil methyl ester 500 EW) these are in each case added in a concentration of 1000 ppm of a.i. to the spray liquor.
Cotton plants (Gossypium hirsutum) which are heavily infested by the cotton aphid (Aphis gossypii) are sprayed to runoff point with the preparation of active compound at the desired concentration.
After the desired period of time, the kill in % is determined. 100% means that all aphids have been killed; 0% means that none of the aphids have been killed.

Myzus persicae = Myzus persicae test (activity boost through ammonium salts and penetrants); format: in vivo, green peach aphid (Myzus persicae); conditions: for Kill (%) after 6 d +AS + RME per 1000 ppm: 1000 ppm each; for Kill (%) after 6 d: no additive, bell pepper plants, spray
Method: as §1, §2
as §3, with “with” for “with emulsifier-containing”, “ppm” for “ppm of a.i.”
Bell pepper plants (Capsicum annuum) heavily infested by the green peach aphid (Myzus persicae) are sprayed to runoff point with the preparation of active compound at the desired concentration.
After the desired period of time, the kill in % is determined. 100% means that all animals have been killed; 0% means that none of the animals have been killed.

[1] = Penetration through enzymatically isolated apple leaf cuticles (35° C., 60% rh); format: in vitro ADME, apple trees of the cultivar Golden Delicious; conditions: 0.2 g/l; for Penetration after 48 h/% EC: 500 ppm in DMF/emulsifier W 7:1 (w/w), no additive; for Penetration after 48 h/% EC + AS (0.7 g/l): with ammonium sulphate; for Penetration after 48 h/% EC + RME (1 g/l): with rapeseed oil methyl ester; for Penetration after 48 h/% EC + RME (1 g/l) + AS (0.7 g/l): with rapeseed oil methyl ester and ammonium sulphate
Method: (§4) In this test, the penetration of active compounds through enzymatically isolated cuticles of apple tree leaves is measured.
(§5) Use is made of leaves which, when fully developed, are cut from apple trees of the cultivar Golden Delicious. The cuticles are isolated by • initially filling leaf discs punched out and stained with dye on the underside by vacuum infiltration with a pectinase solution (0.2 to 2% strength) buffered to a pH between 3 and 4, • then adding sodium azide and • allowing the leaf discs treated in this manner to stand until the original leaf structure has dissolved and the non-cellular cuticles have detached.
(§6) Only the cuticles, free from hairs and stoma, of the upper sides of the leaves are then used. They are washed repeatedly alternating with water and a buffer solution of pH 7. The clean cuticles obtained are then mounted on Teflon plates and smoothed and dried with a gentle stream of air.
(§7) In the next step, the cuticle membranes obtained in this manner are placed into stainless steel diffusion cells (=transport chambers) for membrane transport studies. To this end, the cuticles are placed with a pincette into the centre of the edges, coated with silicone fat, of the diffusion cells and closed with a ring, which is also treated with fat. The arrangement is chosen such that the morphological outside of the cuticles is facing outwards, i.e. exposed to air, whereas the original inside is facing the interior of the diffusion cell.
(§8) The diffusion cells are filled with a 30% strength ethylene glycol/water solution. To determine the penetration, in each case 10 μl of the spray liquor of the composition below are applied to the outside of the cuticles. The spray liquor is prepared using local tap water of medium hardness.
(§9) After the application of the spray liquors, the water is allowed to evaporate and the chambers are inverted and placed into thermostatic tubs in which temperature and atmospheric humidity over the cuticles can be adjusted using a gentle stream of air onto the cuticles with the spray coating (35° C., 60% rh). At regular intervals, an autosampler takes aliquots and the active compound content is determined by HPLC.
(§10) The stated numbers are average values of 8 to 10 measurements. It is clearly evident that even the ammonium salts on their own improve the penetration markedly, and that, together with RME, a superadditive (synergistic) effect is present.

LOLRI = assay: Herbicidal post-emergence action; format: in vivo, Annual Ryegrass (resistant); conditions: 6.25 g of a.i./ha, 28 days after application
Method: (§11) Seeds of monocotyledonous weed plants are placed in sandy loam in wood fibre pots, covered with soil and cultivated in a greenhouse under good growth conditions. 3-4 weeks after sowing, the test plants are treated at the two- to three-leaf stage. The test compound, formulated as a wettable powder (WP), is then, at various dosages with a water application rate of 300 l/ha (converted), with the stated adjuvants added, sprayed onto the green parts of the plants. After the test plants have been kept in the greenhouse under optimum growth conditions for about 4 weeks, the effect of the preparations is rated visually in comparison to untreated controls (herbicidal effect in percent: 100% effect=the plants have died, 0% effect=like control plants).

LOLMU = assay: Herbicidal post-emergence action; format: in vivo, Italian Ryegrass; conditions: 6.25 g of a.i./ha, 28 days after application
Method: as §11

ALOMY = assay: Herbicidal post-emergence action; format: in vivo, Blackgrass (not resistant); conditions: 6.25 g of a.i./ha, 28 days after application
Method: as §11

ALOMY (Peldon) = assay: Herbicidal post-emergence action; format: in vivo, Blackgrass (resistant); conditions: 6.25 g of a.i./ha, 28 days after application
Method: as §11

[2] = Penetration through enzymatically isolated apple leaf cuticles (20° C., 60% rh); format: in vitro ADME, apple trees of the cultivar Golden Delicious; conditions: 0.1 g/l
Method: as §4, §5, §6, §7, §8
as §9, with “(20°” for “(35°”
as §10

[3] = 4 ppm active compound + ammonium sulphate 1000 ppm
[4] = 4 ppm active compound + ammonium sulphate and rapeseed oil methyl ester
[5] = 4 ppm active compound + rapeseed oil methyl ester 1000 ppm
[6] = 20 ppm active compound + ammonium sulphate 1000 ppm
[7] = 20 ppm active compound + ammonium sulphate and rapeseed oil methyl ester
[8] = 20 ppm active compound + rapeseed oil methyl ester 1000 ppm
[9] = with ammonium sulphate (2 kg/ha)
[10] = with ammonium sulphate (2 kg/ha) and Genapol LRO (1 l/ha)

CON1CCC2(CC1)NC(=O)C(c1c(C)cc(C)cc1C)=C2O [I-a-2]
Kill (%) after 6 d +AS 1000 ppm (Aphis gossypii; [3]): 0%
Kill (%) after 6 d +AS + RME per 1000 ppm (Aphis gossypii; [4]): 90%
Kill (%) after 6 d +RME 1000 ppm (Aphis gossypii; [5]): 40%
Kill (%) after 6 d (Aphis gossypii; 4 ppm active compound): 0%
Kill (%) after 6 d +AS 1000 ppm (Aphis gossypii; [6]): 85%
Kill (%) after 6 d +AS + RME per 1000 ppm (Aphis gossypii; [7]): 95%
Kill (%) after 6 d +RME 1000 ppm (Aphis gossypii; [8]): 95%
Kill (%) after 6 d (Aphis gossypii; 20 ppm active compound): 0%
Kill (%) after 6 d +AS 1000 ppm (Myzus persicae; 0.8 ppm active compound + ammonium sulphate 1000 ppm): 0%
Kill (%) after 6 d +AS + RME per 1000 ppm (Myzus persicae; 0.8 ppm active compound + ammonium sulphate and rapeseed oil methyl ester): 90%
Kill (%) after 6 d +RME 1000 ppm (Myzus persicae; 0.8 ppm active compound + rapeseed oil methyl ester 1000 ppm): 0%
Kill (%) after 6 d (Myzus persicae; 0.8 ppm active compound): 0%
Kill (%) after 6 d +AS 1000 ppm (Myzus persicae; [3]): 55%
Kill (%) after 6 d +AS + RME per 1000 ppm (Myzus persicae; [4]): 95%
Kill (%) after 6 d +RME 1000 ppm (Myzus persicae; [5]): 60%
Kill (%) after 6 d (Myzus persicae; 4 ppm active compound): 0%

CCOC(=O)OC1=C(c2cc(C)ccc2C)C(=O)NC12CCN(OC)CC2 [I-c-1]
Kill (%) after 6 d +AS 1000 ppm (Aphis gossypii; [6]): 0%
Kill (%) after 6 d +AS + RME per 1000 ppm (Aphis gossypii; [7]): 90%
Kill (%) after 6 d +RME 1000 ppm (Aphis gossypii; [8]): 80%
Kill (%) after 6 d (Aphis gossypii; 20 ppm active compound): 0%
Kill (%) after 6 d +AS 1000 ppm (Myzus persicae; [6]): 0%
Kill (%) after 6 d +AS + RME per 1000 ppm (Myzus persicae; [7]): 98%
Kill (%) after 6 d +RME 1000 ppm (Myzus persicae; [8]): 20%
Kill (%) after 6 d (Myzus persicae; 20 ppm active compound): 0%

CCc1cc(C)cc(CC)c1C1=C(O)C2(CCN(OC)CC2)NC1=O [Example I-a-3]
Penetration after 48 h/% EC [1]: 1%
Penetration after 48 h/% EC + AS (0.7 g/l) [1]: 9%
Penetration after 48 h/% EC + RME (1 g/l) [1]: 9%
Penetration after 48 h/% EC + RME (1 g/l) + AS (0.7 g/l) [1]: 33%
herbicidal effect, a.i. + GE (LOLRI; with Genapol LRO (1 l/ha)): 20%
herbicidal effect, a.i. + AS (LOLRI; [9]): 0%
herbicidal effect, a.i. + AS + GE (LOLRI; [10]): 60%
herbicidal effect, a.i. (LOLRI; post-emergence, no adjuvant): 0%
herbicidal effect, a.i. + GE (LOLMU; with Genapol LRO (1 l/ha)): 50%
herbicidal effect, a.i. + AS (LOLMU; [9]): 40%
herbicidal effect, a.i. + AS + GE (LOLMU; [10]): 80%
herbicidal effect, a.i. (LOLMU; post-emergence, no adjuvant): 20%
herbicidal effect, a.i. + GE (ALOMY; with Genapol LRO (1 l/ha)): 70%
herbicidal effect, a.i. + AS (ALOMY; [9]): 0%
herbicidal effect, a.i. + AS + GE (ALOMY; [10]): 90%
herbicidal effect, a.i. (ALOMY; post-emergence, no adjuvant): 0%
herbicidal effect, a.i. + GE (ALOMY (Peldon); with Genapol LRO (1 l/ha)): 20%
herbicidal effect, a.i. + AS (ALOMY (Peldon); [9]): 0%
herbicidal effect, a.i. + AS + GE (ALOMY (Peldon); [10]): 60%
herbicidal effect, a.i. (ALOMY (Peldon); post-emergence, no adjuvant): 0%

CON1CCC2(CC1)NC(=O)C(c1cc(C)ccc1C)=C2O [Example I-a-1]
Penetration after 24 h/% EC ([2]; 500 ppm in DMF/emulsifier W 7:1 (w/w), no additive): 0.7%
Penetration after 24 h/% EC + AS (1 g/D) ([2]; with ammonium sulphate): 17%
Penetration after 24 h/% EC + DAHP (1 g/l) ([2]; with diammonium hydrogenphosphate): 15%
Penetration after 24 h/% EC + RME (1 g/l) ([2]; with rapeseed oil methyl ester): 1.7%
Penetration after 24 h/% EC + RME (1 g/l) + AS (1 g/l) ([2]; with rapeseed oil methyl ester and ammonium sulphate): 21%
Penetration after 24 h/% EC + RME (1 g/l) + DAHP (1 g/l) ([2]; with rapeseed oil methyl ester and diammonium hydrogenphosphate): 28%
Kill (%) after 6 d +AS 1000 ppm (Myzus persicae; [6]): 0%
Kill (%) after 6 d +AS + RME per 1000 ppm (Myzus persicae; [7]): 60%
Kill (%) after 6 d +RME 1000 ppm (Myzus persicae; [8]): 0%
Kill (%) after 6 d (Myzus persicae; 20 ppm active compound): 0%

CCON1CCC2(CC1)NC(=O)C(c1c(C)cc(C)cc1C)=C2O [Example I-a-4]
Penetration after 48 h/% EC [1]: 0%
Penetration after 48 h/% EC + AS (0.7 g/l) [1]: 3%
Penetration after 48 h/% EC + RME (1 g/l) [1]: 6%
Penetration after 48 h/% EC + RME (1 g/l) + AS (0.7 g/l) [1]: 17%
